Data reported in PubChem BioAssay AID330 (DTP/NCI, 2004).
“And” between values parts separate entries of the source, which are not always exact repeats. Equal entries are not always repeated. Toxic doses and inconclusive results are not listed.

System: P388 leukemia ip, CD2F1 mice, survival T/C
Assay: NCI In Vivo Anticancer Drug Screen. Data for tumor model P388 Leukemia (intraperitoneal) in CD2F1 (CDF1) mice
Conditions: endpoint: median survival time, higher = longer survival
Summary of the method: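 Mice carrying the transplanted tumor received test compound or vehicle. Survival was recorded in each group, and the value is the treated-group measurement divided by that of the vehicle-treated control group.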

[1] = dose: 5.0 mg/kg/injection, schedule: Q04DX003 (ip), vehicle: saline
[2] = dose: 50.0 mg/kg/injection, schedule: Q01DX009 (ip), vehicle: saline with Tween-80
[3] = dose: 100.0 mg/kg/injection, schedule: Q01DX009 (ip), vehicle: saline with Tween-80
[4] = dose: 200.0 mg/kg/injection, schedule: Q01DX009 (ip), vehicle: saline with Tween-80
[5] = dose: 50.0 mg/kg/injection, schedule: Q01DX005 (ip), vehicle: Klucel (hydroxypropylcellulose) (HPC)
[6] = dose: 100.0 mg/kg/injection, schedule: Q01DX005 (ip), vehicle: Klucel (hydroxypropylcellulose) (HPC)
[7] = dose: 200.0 mg/kg/injection, schedule: Q01DX005 (ip), vehicle: Klucel (hydroxypropylcellulose) (HPC)
[8] = dose: 60.0 mg/kg/injection, schedule: Q01DX005 (ip), vehicle: saline with Tween-80
[9] = dose: 120.0 mg/kg/injection, schedule: Q01DX005 (ip), vehicle: saline with Tween-80
[10] = dose: 240.0 mg/kg/injection, schedule: Q01DX005 (ip), vehicle: saline with Tween-80
[11] = dose: 50.0 mg/kg/injection, schedule: Q01DX009 (ip), vehicle: saline
[12] = dose: 100.0 mg/kg/injection, schedule: Q01DX009 (ip), vehicle: saline
[13] = dose: 200.0 mg/kg/injection, schedule: Q01DX009 (ip), vehicle: saline

COC(=O)c1ccccc1NC(=O)CN1C(=O)c2ccccc2C1=O
T/C (dose: 100.0 mg/kg/injection, schedule: Q04DX003 (ip), vehicle: saline with Tween-80): 96 % of control | T/C (dose: 200.0 mg/kg/injection, schedule: Q04DX003 (ip), vehicle: saline with Tween-80): 102 % of control | T/C (dose: 400.0 mg/kg/injection, schedule: Q04DX003 (ip), vehicle: saline with Tween-80): 88 % of control

CCC(CC)OCCN1CCN(CCCN2c3ccccc3Sc3ccc(C(F)(F)F)cc32)CC1
T/C (dose: 0.75 mg/kg/injection, schedule: Q01DX009 (ip), vehicle: saline with Tween-80): 110 % of control | T/C (dose: 1.5 mg/kg/injection, schedule: Q01DX009 (ip), vehicle: saline with Tween-80): 94 % of control | T/C (dose: 2.5 mg/kg/injection, schedule: Q04DX003 (ip), vehicle: saline): 110 % of control and 93 % of control | T/C (dose: 3.0 mg/kg/injection, schedule: Q01DX009 (ip), vehicle: saline with Tween-80): 99 % of control | T/C [1]: 101 % of control and 97 % of control | T/C (dose: 6.0 mg/kg/injection, schedule: Q01DX009 (ip), vehicle: saline with Tween-80): 100 % of control | T/C (dose: 10.0 mg/kg/injection, schedule: Q04DX003 (ip), vehicle: saline with Tween-80): 99 % of control and 122 % of control | T/C (dose: 10.0 mg/kg/injection, schedule: Q04DX003 (ip), vehicle: saline): 109 % of control and 96 % of control | T/C (dose: 12.0 mg/kg/injection, schedule: Q01DX009 (ip), vehicle: saline with Tween-80): 110 % of control | T/C (dose: 20.0 mg/kg/injection, schedule: Q04DX003 (ip), vehicle: saline with Tween-80): 109 % of control and 119 % of control | T/C (dose: 20.0 mg/kg/injection, schedule: Q04DX003 (ip), vehicle: saline): 113 % of control and 98 % of control

O=C(Nc1cccc2c1C(=O)c1cccc(Nc3cccc4c3C(=O)c3cccc(NC(=O)c5ccccc5)c3C4=O)c1C2=O)c1ccccc1
T/C (dose: 50.0 mg/kg/injection, schedule: Q01DX005 (ip), vehicle: saline with Tween-80): 101 % of control and 94 % of control | T/C (dose: 100.0 mg/kg/injection, schedule: Q01DX005 (ip), vehicle: saline with Tween-80): 88 % of control and 92 % of control | T/C (dose: 200.0 mg/kg/injection, schedule: Q01DX005 (ip), vehicle: saline with Tween-80): 93 % of control

COC(=O)/C=C1\Sc2cc(F)ccc2NC1=O
T/C [2]: 92 % of control | T/C [3]: 98 % of control | T/C [4]: 100 % of control

CC1C(O)CC23COC(=O)C2=CCCC3C1(C)CCC1COC(=O)C1 (stereo unspecified)
T/C (dose: 9.38 mg/kg/injection, schedule: Q01DX005 (ip), vehicle: Klucel (hydroxypropylcellulose) (HPC)): 101 % of control | T/C (dose: 18.75 mg/kg/injection, schedule: Q01DX005 (ip), vehicle: Klucel (hydroxypropylcellulose) (HPC)): 90 % of control | T/C (dose: 37.5 mg/kg/injection, schedule: Q01DX005 (ip), vehicle: Klucel (hydroxypropylcellulose) (HPC)): 105 % of control | T/C (dose: 75.0 mg/kg/injection, schedule: Q01DX005 (ip), vehicle: Klucel (hydroxypropylcellulose) (HPC)): 117 % of control

COC(=O)/C=C/c1ccccc1-c1ccccc1/C=C/C(=O)OC
T/C (dose: 100.0 mg/kg/injection, schedule: Q04DX003 (ip), vehicle: saline): 105 % of control | T/C (dose: 200.0 mg/kg/injection, schedule: Q04DX003 (ip), vehicle: saline): 102 % of control | T/C (dose: 400.0 mg/kg/injection, schedule: Q04DX003 (ip), vehicle: saline): 100 % of control

CCOC(=O)C1=C(c2ccccc2)OC(N)=C(C#N)C1c1ccccc1Cl (stereo unspecified)
T/C [5]: 96 % of control | T/C [6]: 105 % of control | T/C [7]: 107 % of control

COc1ccc(S(=O)c2coc3ccccc3c2=O)cc1 (stereo unspecified)
T/C [8]: 99 % of control | T/C [9]: 100 % of control | T/C [10]: 100 % of control

O=[N+]([O-])c1ccc(NN=NCCCl)cc1
T/C (dose: 12.5 mg/kg/injection, schedule: Q01DX009 (ip), vehicle: distilled water + Tween-80): 109 % of control

CC1CCC2(CC1)CCN(CCCN(C)C)CC2
T/C [11]: 99 % of control | T/C [12]: 103 % of control

CN(C)C(=S)SC(=S)Sc1c(Cl)c(Cl)c(Cl)c(Cl)c1Cl
T/C [2]: 99 % of control | T/C [3]: 100 % of control | T/C [4]: 99 % of control

C=CC1(C)CC(C)=NC1C(=O)c1c[nH]c2ccccc12 (stereo unspecified)
T/C (dose: 12.5 mg/kg/injection, schedule: Q01DX005 (ip), vehicle: DMSO): 100 % of control | T/C (dose: 25.0 mg/kg/injection, schedule: Q01DX005 (ip), vehicle: DMSO): 97 % of control | T/C (dose: 50.0 mg/kg/injection, schedule: Q01DX005 (ip), vehicle: DMSO): 90 % of control | T/C (dose: 100.0 mg/kg/injection, schedule: Q01DX005 (ip), vehicle: DMSO): 94 % of control | T/C (dose: 200.0 mg/kg/injection, schedule: Q01DX005 (ip), vehicle: DMSO): 90 % of control

O=C1CCCC(Br)c2ccccc21 (stereo unspecified)
T/C (dose: 100.0 mg/kg/injection, schedule: Q01DX009 (ip), vehicle: distilled water + Tween-80 + alcohol): 112 % of control | T/C (dose: 200.0 mg/kg/injection, schedule: Q01DX009 (ip), vehicle: distilled water + Tween-80 + alcohol): 115 % of control | T/C (dose: 400.0 mg/kg/injection, schedule: Q01DX009 (ip), vehicle: distilled water + Tween-80 + alcohol): 106 % of control

O=c1cc(CSc2ncnc3nc[nH]c23)[nH]c(=O)[nH]1
T/C [11]: 106 % of control | T/C [12]: 111 % of control | T/C [13]: 108 % of control

COc1cccc2c1C(=O)c1c(O)c3c(c(O)c1C2=O)C[C@@](O)(/C(C)=N\NC=O)C[C@@H]3OC1CC(N)C(O)C(C)O1 (stereo partly specified)
T/C (dose: 0.65 mg/kg/injection, schedule: Q01DX009 (ip), vehicle: saline): 150 % of control | T/C (dose: 1.08 mg/kg/injection, schedule: Q01DX009 (ip), vehicle: saline): 150 % of control | T/C (dose: 1.8 mg/kg/injection, schedule: Q01DX009 (ip), vehicle: saline): 159 % of control | T/C (dose: 3.0 mg/kg/injection, schedule: Q01DX009 (ip), vehicle: saline): 163 % of control | T/C (dose: 3.0 mg/kg/injection, schedule: Q04DX003 (ip), vehicle: saline): 150 % of control | T/C (dose: 5.0 mg/kg/injection, schedule: Q01DX009 (ip), vehicle: saline): 163 % of control | T/C [1]: 154 % of control | T/C (dose: 8.0 mg/kg/injection, schedule: Q01DX001 (ip), vehicle: saline): 154 % of control | T/C (dose: 8.0 mg/kg/injection, schedule: Q01DX009 (ip), vehicle: saline): 177 % of control | T/C (dose: 8.0 mg/kg/injection, schedule: Q04DX003 (ip), vehicle: saline): 172 % of control | T/C (dose: 13.3 mg/kg/injection, schedule: Q01DX001 (ip), vehicle: saline): 154 % of control | T/C (dose: 22.2 mg/kg/injection, schedule: Q01DX001 (ip), vehicle: saline): 172 % of control | T/C (dose: 22.2 mg/kg/injection, schedule: Q04DX003 (ip), vehicle: saline): 190 % of control | T/C (dose: 37.0 mg/kg/injection, schedule: Q01DX001 (ip), vehicle: saline): 181 % of control

CO[C@H](C(=O)[C@@H](O)[C@@H](C)O)[C@@H]1Cc2cc3cc(O)c(C)c(O)c3c(O)c2C(=O)[C@H]1O
T/C (dose: 8.0 mg/kg/injection, schedule: Q01DX009 (ip), vehicle: water): 107 % of control | T/C (dose: 16.0 mg/kg/injection, schedule: Q01DX009 (ip), vehicle: water): 114 % of control | T/C (dose: 32.0 mg/kg/injection, schedule: Q01DX009 (ip), vehicle: water): 100 % of control

CCOC(=O)CC[Si](CC)(CC)CC
T/C [11]: 104 % of control | T/C [12]: 93 % of control | T/C [13]: 90 % of control

CC(=O)OCC1OC(Nc2[nH]c(=O)n(C)c(=O)c2C(=O)CCl)C(OC(C)=O)C(OC(C)=O)C1OC(C)=O (stereo unspecified)
T/C [8]: 114 % of control | T/C [9]: 105 % of control | T/C [10]: 124 % of control

CC(=O)OCC1CN2CC1(c1ccccc1)C(=O)NC2=O (stereo unspecified)
T/C (dose: 100.0 mg/kg/injection, schedule: Q01DX001 (ip), vehicle: saline): 102 % of control | T/C (dose: 200.0 mg/kg/injection, schedule: Q01DX001 (ip), vehicle: saline): 102 % of control | T/C (dose: 400.0 mg/kg/injection, schedule: Q01DX001 (ip), vehicle: saline): 100 % of control

COC1=CCC2C(=O)C=CC(=O)C2C1 (stereo unspecified)
T/C (dose: 12.5 mg/kg/injection, schedule: Q01DX005 (ip), vehicle: Klucel (hydroxypropylcellulose) (HPC)): 101 % of control | T/C (dose: 25.0 mg/kg/injection, schedule: Q01DX005 (ip), vehicle: Klucel (hydroxypropylcellulose) (HPC)): 93 % of control | T/C [5]: 101 % of control | T/C [6]: 96 % of control | T/C [7]: 101 % of control
